Source: ChEMBL document CHEMBL1125749, “trans-3-n-propyl-L-proline is a highly favorable, conformationally restricted replacement for methionine in the C-terminal tetrapeptide of cholecystokinin. Stereoselective synthesis of 3-allyl- and 3-n-propyl-L-proline derivatives from 4-hydroxy-L-proline” (J Med Chem, 1991)
Square brackets hold non-standard residues; d marks the D form. Peptide text beside a SMILES is read from it. * marks the point of attachment. Nle = CCCC[C@H](N)C(=O)O; Boc = CC(C)(C)OC(=O)*

Biological target: T1, Cholecystokinin receptor type A (Cavia porcellus, UniProt Q63931)
T1 sequence (Q63931 whole entry): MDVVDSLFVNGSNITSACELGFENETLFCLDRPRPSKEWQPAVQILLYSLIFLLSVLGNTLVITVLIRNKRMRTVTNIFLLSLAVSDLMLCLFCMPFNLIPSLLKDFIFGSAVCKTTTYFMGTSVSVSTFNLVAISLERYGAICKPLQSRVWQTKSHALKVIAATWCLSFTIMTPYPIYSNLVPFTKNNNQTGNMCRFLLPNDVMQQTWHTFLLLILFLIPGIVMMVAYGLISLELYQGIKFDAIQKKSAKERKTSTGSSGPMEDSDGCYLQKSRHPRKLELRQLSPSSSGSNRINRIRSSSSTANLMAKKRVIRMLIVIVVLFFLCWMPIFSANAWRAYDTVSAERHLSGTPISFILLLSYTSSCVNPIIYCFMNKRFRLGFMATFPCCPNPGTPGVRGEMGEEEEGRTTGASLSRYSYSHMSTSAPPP
Assay: Compound was tested for its inhibitory activity in pancreatic cholecystokinin type A receptor in guinea pig

| IC50 [µM] | SMILES |
| --- | --- |
| 4 | CCCC[C@H](NC(=O)[C@H](Cc1c[nH]c2ccccc12)NC(=O)OC(C)(C)C)C(=O)N[C@@H](CC(=O)O)C(=O)N[C@@H](Cc1ccccc1)C(N)=O (Boc-W[Nle]DF-NH2) |
| 10.3 | C[C@H](NC(=O)[C@H](Cc1c[nH]c2ccccc12)NC(=O)OC(C)(C)C)C(=O)N[C@@H](CC(=O)O)C(=O)N[C@@H](Cc1ccccc1)C(N)=O (Boc-WADF-NH2) |
| 2.7 | CCC[C@@H]1CCN(C(=O)[C@H](Cc2c[nH]c3ccccc23)NC(=O)OC(C)(C)C)[C@@H]1C(=O)N[C@@H](CC(=O)O)C(=O)N[C@@H](Cc1ccccc1)C(N)=O |
| 2.1 | CC(C)(C)OC(=O)N[C@@H](Cc1c[nH]c2ccccc12)C(=O)N1CCC[C@H]1C(=O)N[C@@H](CC(=O)O)C(=O)N[C@@H](Cc1ccccc1)C(N)=O (Boc-WPDF-NH2) |
